Test results as given in ChEMBL document CHEMBL1833931, “Simple synthetic toll-like receptor 2 ligands” (Bioorg Med Chem Lett, 2011).
Calls of active or inactive are those of the source. The calls are words filed in the database; no cut-off is given here.

Biological target: Toll-like receptor 2 (Homo sapiens) (UniProt O60603)
Experiment: Agonist activity at TLR2 expressed in HEK293 cells co-expressing pNF-kappaB-Luc Cis assessed as NF-kappaB activation at 100 nM by luciferase reporter gene assay
Format: functional, cell-based

Toll-like receptor 2 (Homo sapiens), sequence (O60603 whole entry): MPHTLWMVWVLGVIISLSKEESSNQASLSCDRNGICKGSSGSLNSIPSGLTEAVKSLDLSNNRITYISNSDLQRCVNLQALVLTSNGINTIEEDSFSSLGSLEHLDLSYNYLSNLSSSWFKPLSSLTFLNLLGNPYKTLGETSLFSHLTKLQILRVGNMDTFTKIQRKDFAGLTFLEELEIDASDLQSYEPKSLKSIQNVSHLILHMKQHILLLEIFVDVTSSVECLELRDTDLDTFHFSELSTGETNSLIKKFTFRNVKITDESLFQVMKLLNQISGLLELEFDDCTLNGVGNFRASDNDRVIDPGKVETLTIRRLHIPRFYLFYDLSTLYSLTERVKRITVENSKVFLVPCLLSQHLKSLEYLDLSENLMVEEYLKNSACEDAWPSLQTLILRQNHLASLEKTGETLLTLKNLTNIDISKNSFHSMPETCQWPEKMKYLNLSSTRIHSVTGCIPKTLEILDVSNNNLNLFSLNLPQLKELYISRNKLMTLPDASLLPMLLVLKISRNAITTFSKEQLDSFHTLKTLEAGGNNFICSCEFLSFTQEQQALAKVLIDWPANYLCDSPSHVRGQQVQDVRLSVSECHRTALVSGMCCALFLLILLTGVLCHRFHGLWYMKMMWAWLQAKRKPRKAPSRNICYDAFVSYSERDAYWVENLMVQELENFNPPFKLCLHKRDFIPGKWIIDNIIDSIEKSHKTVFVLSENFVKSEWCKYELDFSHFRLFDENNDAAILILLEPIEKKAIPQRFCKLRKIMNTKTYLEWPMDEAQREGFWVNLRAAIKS

SMILES | Activity
CCCCCCCCCCCCCCCC(=O)NC(CO)CCCCCCCCCCCCCC (configuration not stated) | Active
CCCCCCCCCCCCCCCC(=O)NC(CCCCCCCCCCCCCC)C(=O)O (configuration not stated) | Active
